Test results from ChEMBL document CHEMBL2375211, “2-methoxyjuglone induces apoptosis in HepG2 human hepatocellular carcinoma cells and exhibits in vivo antitumor activity in a H22 mouse hepatocellular carcinoma model” (J Nat Prod, 2013).
The source made the active and inactive calls. The calls are words filed in the database; no cut-off is given here.

How the values were obtained:
H22 [1] = experiment: Antitumor activity against mouse H22 cells allografted in Kunming mouse assessed as decrease in tumor size at 0.5 to 1 mg/kg/day, ip administered 8 days measured after 10 days; assay type: functional, organism-based
Mus musculus = experiment: Toxicity in Kunming mouse allografted with mouse H22 cells assessed as decrease in body weight at 0.25 to 1 mg/kg/day, ip measured every day for 8 days; assay type: organism-based; design: route intraperitoneal; details: in vivo, 192 h
H22 [2] = experiment: Antitumor activity against mouse H22 cells allografted in Kunming mouse assessed as decrease in weight of tumor mass at 1 mg/kg/day, ip administered 8 days measured after 10 days relative to control; assay type: functional; design: scale not given: the % may be the effect or the level left; details: route intraperitoneal
H22 [3] = experiment: Antitumor activity against mouse H22 cells allografted in Kunming mouse assessed as decrease in weight of tumor mass at 0.5 mg/kg/day, ip administered 8 days measured after 10 days relative to control; assay type: functional; design: scale not given: the % may be the effect or the level left; details: route intraperitoneal
HepG2 [4] = experiment: Induction of apoptosis in human HepG2 cells assessed as decrease in Bcl-2 level at 1.6 to 4.8 ug/mL after 24 hrs by Western blot analysis; assay type: functional, cell-based
HepG2 [5] = experiment: Induction of apoptosis in human HepG2 cells assessed as increase in Bax level after 24 hrs by Western blot analysis; assay type: functional, cell-based
HepG2 [6] = experiment: Induction of apoptosis in human HepG2 cells assessed as PARP cleavage at 1.6 to 4.8 ug/mL after 24 hrs by Western blot analysis; assay type: functional, cell-based
HepG2 [7] = experiment: Induction of apoptosis in human HepG2 cells assessed as mitochondrial cytochrome c-dependent caspase-3 activation at 1.6 to 4.8 ug/mL after 24 hrs by Western blot analysis; assay type: functional, cell-based
HepG2 [8] = experiment: Induction of apoptosis in human HepG2 cells assessed as mitochondrial cytochrome c-dependent caspase-9 activation at 1.6 to 4.8 ug/mL after 24 hrs by Western blot analysis; assay type: functional, cell-based
HepG2 [9] = experiment: Induction of apoptosis in human HepG2 cells assessed as increase in mitochondrial cytochrome c release after 24 hrs by Western blot analysis; assay type: functional, cell-based
HepG2 [10] = experiment: Induction of apoptosis in human HepG2 cells assessed as increase in early apoptotic cells after 24 hrs by annexin V-FITC/propidium iodide staining-based FACS flow cytometric analysis; assay type: functional, cell-based
HepG2 [11] = experiment: Cell cycle arrest in human HepG2 cells assessed as accumulation at G2/M phase at 8 ug/mL after 48 hrs by propidium iodide staining-based flow cytometric analysis (reference value: 5%); assay type: functional
HepG2 [12] = experiment: Cell cycle arrest in human HepG2 cells assessed as accumulation at S phase at 8 ug/mL after 48 hrs by propidium iodide staining-based flow cytometric analysis (reference value: 31%); assay type: functional
HepG2 [13] = experiment: Cell cycle arrest in human HepG2 cells assessed as accumulation at G1 phase at 8 ug/mL after 48 hrs by propidium iodide staining-based flow cytometric analysis (reference value: 64%); assay type: functional
HepG2 [14] = experiment: Cell cycle arrest in human HepG2 cells assessed as accumulation at sub-G1 phase at 8 ug/mL after 48 hrs by propidium iodide staining-based flow cytometric analysis (reference value: 3%); assay type: functional
HepG2 [15] = experiment: Cell cycle arrest in human HepG2 cells assessed as accumulation at G2/M phase at 6.4 ug/mL after 48 hrs by propidium iodide staining-based flow cytometric analysis (reference value: 5%); assay type: functional
HepG2 [16] = experiment: Cell cycle arrest in human HepG2 cells assessed as accumulation at S phase at 6.4 ug/mL after 48 hrs by propidium iodide staining-based flow cytometric analysis (reference value: 31%); assay type: functional
HepG2 [17] = experiment: Cell cycle arrest in human HepG2 cells assessed as accumulation at G1 phase at 6.4 ug/mL after 48 hrs by propidium iodide staining-based flow cytometric analysis (reference value: 64%); assay type: functional
HepG2 [18] = experiment: Cell cycle arrest in human HepG2 cells assessed as accumulation at sub-G1 phase at 6.4 ug/mL after 48 hrs by propidium iodide staining-based flow cytometric analysis (reference value: 3%); assay type: functional
HepG2 [19] = experiment: Cell cycle arrest in human HepG2 cells assessed as accumulation at G2/M phase at 4.8 ug/mL after 48 hrs by propidium iodide staining-based flow cytometric analysis (reference value: 5%); assay type: functional
HepG2 [20] = experiment: Cell cycle arrest in human HepG2 cells assessed as accumulation at S phase at 4.8 ug/mL after 48 hrs by propidium iodide staining-based flow cytometric analysis (reference value: 31%); assay type: functional
HepG2 [21] = experiment: Cell cycle arrest in human HepG2 cells assessed as accumulation at G1 phase at 4.8 ug/mL after 48 hrs by propidium iodide staining-based flow cytometric analysis (reference value: 64%); assay type: functional
HepG2 [22] = experiment: Cell cycle arrest in human HepG2 cells assessed as accumulation at sub-G1 phase at 4.8 ug/mL after 48 hrs by propidium iodide staining-based flow cytometric analysis (reference value: 3%); assay type: functional
HepG2 [23] = experiment: Cell cycle arrest in human HepG2 cells assessed as accumulation at G2/M phase at 3.2 ug/mL after 48 hrs by propidium iodide staining-based flow cytometric analysis (reference value: 5%); assay type: functional
HepG2 [24] = experiment: Cell cycle arrest in human HepG2 cells assessed as accumulation at S phase at 3.2 ug/mL after 48 hrs by propidium iodide staining-based flow cytometric analysis (reference value: 31%); assay type: functional
HepG2 [25] = experiment: Cell cycle arrest in human HepG2 cells assessed as accumulation at G1 phase at 3.2 ug/mL after 48 hrs by propidium iodide staining-based flow cytometric analysis (reference value: 64%); assay type: functional
HepG2 [26] = experiment: Cell cycle arrest in human HepG2 cells assessed as accumulation at sub-G1 phase at 3.2 ug/mL after 48 hrs by propidium iodide staining-based flow cytometric analysis (reference value: 3%); assay type: functional
HepG2 [27] = experiment: Cell cycle arrest in human HepG2 cells assessed as accumulation at G2/M phase at 1.6 ug/mL after 48 hrs by propidium iodide staining-based flow cytometric analysis (reference value: 5%); assay type: functional
HepG2 [28] = experiment: Cell cycle arrest in human HepG2 cells assessed as accumulation at S phase at 1.6 ug/mL after 48 hrs by propidium iodide staining-based flow cytometric analysis (reference value: 31%); assay type: functional
HepG2 [29] = experiment: Cell cycle arrest in human HepG2 cells assessed as accumulation at G1 phase at 1.6 ug/mL after 48 hrs by propidium iodide staining-based flow cytometric analysis (reference value: 64%); assay type: functional

Question: Which results are given for `COC1=CC(=O)c2c(O)cccc2C1=O`?
Answer: Activity (H22 [1]): Active; Activity (Mus musculus): Non-toxic; Activity (H22 [2]): 67%; Activity (H22 [3]): 56%; Activity (HepG2 [4]): Active; Activity (HepG2 [5]): Dose-dependent effect; Activity (HepG2 [6]): Active; Activity (HepG2 [7]): Active; Activity (HepG2 [8]): Active; Activity (HepG2 [9]): Dose-dependent effect; Activity (HepG2 [10]): Dose-dependent effect; Activity (HepG2 [11]): 0%; Activity (HepG2 [12]): 46%; Activity (HepG2 [13]): 54%; Activity (HepG2 [14]): 33%; Activity (HepG2 [15]): 2%; Activity (HepG2 [16]): 52%; Activity (HepG2 [17]): 46%; Activity (HepG2 [18]): 18%; Activity (HepG2 [19]): 2%; Activity (HepG2 [20]): 66%; Activity (HepG2 [21]): 32%; Activity (HepG2 [22]): 6%; Activity (HepG2 [23]): 1%; Activity (HepG2 [24]): 64%; Activity (HepG2 [25]): 35%; Activity (HepG2 [26]): 4%; Activity (HepG2 [27]): 1%; Activity (HepG2 [28]): 49%; Activity (HepG2 [29]): 50%
